Our source for the functional comment, IC50 and Ki values is patent US8609680B2, “2,3-dihydro-1H-inden-1-yl-2,7-diazaspiro[3.5] nonane derivatives” (Pfizer Inc., priority 2010, dated 2013).

In experiment [1] the target is T1, human GHSR1a (Homo sapiens, UniProt Q92847).
T1 construct: expressed in transfected cells; host or cells: HEK293 Tetracycline-Inducible cell line, used as membranes
The experiment can be described thus: Human Ghrelin Functional Assay (DELFIA GTP-binding assay). In kind it is biochemical. To be noted: GTP-Europium exchange, human GHSR1a membranes, with and without ghrelin at EC80. How it is done: Human Ghrelin Functional Assay
To measure the ability of test compounds in the present invention to modulate the activity of human GHSR1a (agonize, antagonize, partially agonize, inversely agonize), a DELFIA GTP-binding assay (Perkin Elmer, AD0260 and AD0261) is performed. The assay monitors the ligand-dependent exchange of GDP for GTP. GPCR activation results in an increase in fluorescence as receptor-bound GDP is replaced by Europium-labeled GTP.
Ghrelin functional assays are performed in a final volume of 39.5 μl containing 720 ng human GHSR1a (HEK293 Tetracycline-Inducible cell line expressing the human growth secretagogue receptor la, prepared as membranes), 9 nM GTP-Europium and varying concentrations of test compound or vehicle. To test for receptor antagonism, membranes are incubated in the presence of agonist ghrelin (Anaspec, 24158) at the EC80 concentration, plus test compound or vehicle.
Briefly, test compounds are prepared at room temperature in 384-well plates (Matrix, 4340). […] Samples are then transferred as 6 μl to 384-well filter plates (Pall, 5071) containing 30 μl of 24 μg/ml hGHSR1a membrane and 0.35 mg/ml saponin (Perkin Elmer, AD0261) in basal buffer.
The mixture is incubated 24 minutes at room temperature with gentle shaking, followed by the addition of 3.5 μl of 100 nM GTP-Europium in 50 mM HEPES, pH 7.4. Samples are shielded from light and incubated for 90 minutes further at room temperature with gentle shaking. The reactions are suctioned dry with vacuum, washed three times with 75 μl ice cold 1× GTP Wash Solution (Perkin Elmer, AD0261), and immediately read on the Envision 2101 Multilabel Reader (Perkin Elmer) using excitation filter 320 nm and emission filter 615 nm.

Experiment [2] addresses T1, human GHSR1a. The experiment can be described thus: Human Ghrelin SPA Binding Assay. The text has this:
The SPA format was utilized for high throughput screening of test compounds and filter binding served for more comprehensive binding characterization.
Human Ghrelin SPA Binding Assay

pIC50, pKi: −log10 of the molar value. Read-outs that look alike come from different tables or passages of the source.

T1 sequence (Q92847 whole entry): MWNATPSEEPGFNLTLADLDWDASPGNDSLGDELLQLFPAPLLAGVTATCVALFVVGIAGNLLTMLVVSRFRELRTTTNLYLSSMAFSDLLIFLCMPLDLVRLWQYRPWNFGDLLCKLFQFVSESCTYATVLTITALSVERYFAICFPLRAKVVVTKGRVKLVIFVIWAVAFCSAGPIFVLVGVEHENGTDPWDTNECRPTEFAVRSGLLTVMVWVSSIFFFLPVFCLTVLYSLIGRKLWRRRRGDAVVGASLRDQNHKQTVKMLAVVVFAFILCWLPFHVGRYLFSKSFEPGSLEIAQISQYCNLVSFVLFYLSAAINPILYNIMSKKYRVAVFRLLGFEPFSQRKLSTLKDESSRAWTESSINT

For `COc1ccc(CC(=O)N2CCC3(CC2)CN(C2CCc4cc(-c5cnccn5)ccc42)C3)nc1` (racemic) [Example 2H], at human GHSR1a [1], the functional comment result is “inverse agonist”. Moreover, on human GHSR1a [2], the negative-log IC50 (pIC50) (commonly the negative decadic logarithm of the IC50, by convention in mol/L) was 7.04 and the negative-log Ki (pKi) (in general, the Ki on a negative log10 scale, so that one unit is a factor of ten) was 6.66.
Consider `NC(=O)c1ccc(-c2ccc3c(c2)CC[C@H]3N2CC3(CCN(C(=O)Cc4ccc(C5CC5)cn4)CC3)C2)cn1` [Example 10E], for which the functional comment entry on human GHSR1a [1] was “inverse agonist”. Also, at human GHSR1a [2], the negative-log IC50 (pIC50) was 8.00 and the pKi was 8.05.
The corresponding values for `Cc1nn2cc(CC(=O)N3CCC4(CC3)CN([C@@H]3CCc5cc(-c6ccc(C(N)=O)nc6)ccc53)C4)nc2s1` [Example 10F] are “inverse agonist”, 7.80 and 7.85.
With `Cc1cn2cc(CC(=O)N3CCC4(CC3)CN([C@@H]3CCc5cc(-n6nccn6)ccc53)C4)nc2s1` [Example 6F], the functional comment entry at human GHSR1a [1] was “inverse agonist”. In addition, on human GHSR1a [2], the negative-log IC50 (pIC50) was 8.22 and the negative-log Ki (pKi) was 8.29.
The corresponding values for `Cc1cc(C)nc(-c2ccc3c(c2)CC[C@H]3N2CC3(CCN(C(=O)Cc4cn5nc(C)sc5n4)CC3)C2)n1` [Example 3AL] are “inverse agonist”, 8.11 and 8.16.
With `Cc1ccn2cc(CC(=O)N3CCC4(CC3)CN([C@@H]3CCc5cc(-c6cc(C(N)=O)ncn6)ccc53)C4)nc2c1` [Example 10G], the functional comment result on human GHSR1a [1] is listed as “inverse agonist”. Besides, on human GHSR1a [2], the pIC50 was 7.22 and the pKi is 7.27.
The corresponding values for `COc1ccc(CC(=O)N2CCC3(CC2)CN([C@@H]2CCc4cc(-n5nccn5)ccc42)C3)cc1` [Example 6E] are “inverse agonist”, 8.42 and 8.51.
Regarding `COc1ccc(CC(=O)N2CCC3(CC2)CN([C@@H]2CCc4cc(-c5nccc(C)n5)ccc42)C3)nc1` [Example 3S], the functional comment entry at human GHSR1a [1] is recorded as “inverse agonist”. At human GHSR1a [2], this molecule had a pIC50 of 7.75 and a pKi of 7.81.
Turning to `COc1ccc(CC(=O)N2CCC3(CC2)CN(C2CCc4cc(-c5ccc(OC)cn5)ccc42)C3)nc1` (stereo not drawn) [Example 2A, 7-[(5-Methoxypyridin-2-yl)acetyl]-2-[5-(5-methoxypyridin-2-yl)-2,3-dihydro-1H-inden-1-yl]-2,7-diazaspiro[3.5]nonane], the functional comment result on human GHSR1a [1] is recorded as “inverse agonist”. Further, on human GHSR1a [2], the pIC50 was 7.64 and the negative-log Ki (pKi) was 7.04.
As for `Cc1cnc(-c2ccc3c(c2)CC[C@H]3N2CC3(CCN(C(=O)Cc4cn5nc(C)sc5n4)CC3)C2)nc1` [Example 3AN], the functional comment result at human GHSR1a [1] is recorded as “inverse agonist”. On human GHSR1a [2], this molecule had a pIC50 of 7.78 and a pKi of 7.83.
The corresponding values for `Cc1nccc(-c2ccc3c(c2)CC[C@H]3N2CC3(CCN(C(=O)Cc4ccc5c(n4)OCCO5)CC3)C2)n1` [Example 3E, 6-(2-{2-[(1R)-5-(2-methylpyrimidin-4-yl)-2,3-dihydro-1H-inden-1-yl]-2,7-diazaspiro[3.5]non-7-yl}-2-oxoethyl)-2,3-dihydro[1,4]dioxino[2,3-b]pyridine] are “inverse agonist”, 7.68 and 7.73.
The corresponding values for `COc1ccc(CC(=O)N2CCC3(CC2)CN(C2CCc4cc(-c5nc(C)cc(C)n5)ccc42)C3)nc1` (racemic) [Example 2I] are “inverse agonist”, 7.82 and 7.29.
As to `Cc1ccc(CC(=O)N2CCC3(CC2)CN([C@@H]2CCc4cc(-c5ncccn5)ccc42)C3)nc1` [Example 3I], the functional comment result at human GHSR1a [1] was “inverse agonist”. For the same molecule, the pIC50 at human GHSR1a [2] was 7.51. This molecule also showed a pKi on human GHSR1a [2] (SPA format, [125I] ghrelin displacement, human GHSR1a membranes, Ki=IC50/(1+[ligand]/Kd)) of 7.56.
In the case of `COc1ccc(CC(=O)N2CCC3(CC2)CN([C@@H]2CCc4cc(-c5ncco5)ccc42)C3)cc1` [Example 3AD], the functional comment result at human GHSR1a [1] is “inverse agonist”. At human GHSR1a [2], this molecule gave a negative logarithm of the IC50 (pIC50) of 7.71 and a pKi of 7.81.
For `NC(=O)c1cnc(-c2ccc3c(c2)CC[C@H]3N2CC3(CCN(C(=O)Cc4cn5ccccc5n4)CC3)C2)cn1` [Example 10C], on human GHSR1a [2], the pIC50 was 7.03 and the pKi is 7.09.
The corresponding values for `COc1ccc(CC(=O)N2CCC3(CC2)CN([C@@H]2CCc4cc(-n5cc(C)cn5)ccc42)C3)cc1` [Example 8B] are 7.98 and 8.05.
The corresponding values for `COc1ccc(CC(=O)N2CCC3(CC2)CN([C@@H]2CCc4cc(-c5cc(OC)ncn5)ccc42)C3)nc1` [Example 3V] are 7.69 and 7.76.
The corresponding values for `COc1ccc(CC(=O)N2CCC3(CC2)CN([C@@H]2CCc4cc(-c5cnc(C(N)=O)cn5)ccc42)C3)nc1` [Example 10A, 5-[(1R)-1-{7-[(5-methoxypyridin-2-yl)acetyl]-2,7-diazaspiro[3.5]non-2-yl}-2,3-dihydro-1H-inden-5-yl]pyrazine-2-carboxamide] are 7.20 and 7.26.
At human GHSR1a [2], `COc1ccc(CC(=O)N2CCC3(CC2)CN([C@@H]2CCc4cc(-c5cc(C(N)=O)ncn5)ccc42)C3)nc1` [Example 10D] showed a pIC50 of 7.02 and a pKi of 7.08.
The corresponding values for `COc1ccc(CC(=O)N2CCC3(CC2)CN(C2CCc4cc(Oc5ccccc5)ccc42)C3)nc1` (racemic) [Example 1I] are 7.44 and 7.53.
Take `COc1ccc(CC(=O)N2CCC3(CC2)CN([C@@H]2CCc4cc(-c5nnc(C)s5)ccc42)C3)nc1` [Example 6J]: at human GHSR1a [2], the pIC50 was 6.49 and the pKi was 6.58.
The corresponding values for `O=C(Cc1n[nH]c2ccccc12)N1CCC2(CC1)CN(C1CCc3cc(-c4ncccn4)ccc31)C2` (stereo not drawn) [Example 1C] are 7.78 and 7.85.
Take `Cc1ccn2cc(CC(=O)N3CCC4(CC3)CN([C@@H]3CCc5cc(-c6ccc(C(N)=O)cc6)ccc53)C4)nc2c1` [Example 4A, 4-[(1R)-1-{7-[(7-methylimidazo[1,2-a]pyridin-2-yl)acetyl]-2,7-diazaspiro[3.5]non-2-yl}-2,3-dihydro-1H-inden-5-yl]benzamide]: on human GHSR1a [2], the negative logarithm of the IC50 (pIC50) was 8.03 and the pKi was 8.10.
At human GHSR1a [2], `CCc1ccc(CC(=O)N2CCC3(CC2)CN([C@@H]2CCc4cc(-c5ncccn5)ccc42)C3)cc1` [Example 5F] showed a pIC50 of 7.89 and a pKi of 7.98.
As to `COc1ccc(CC(=O)N2CCC3(CC2)CN(C2CCc4cc(-c5ncc(OC)cn5)ccc42)C3)nc1` (racemic) [Example 2E], at human GHSR1a [2], the negative-log IC50 (pIC50) is 7.45 and the negative-log Ki (pKi) was 7.20.
The corresponding values for `COc1ccc(CC(=O)N2CCC3(CC2)CN([C@@H]2CCc4cc(-n5cc(C)cn5)ccc42)C3)nc1` [Example 8A, 7-[(5-methoxypyridin-2-yl)acetyl]-2-[(1R)-5-(4-methyl-1H-pyrazol-1-yl)-2,3-dihydro-1H-inden-1-yl]-2,7-diazaspiro[3.5]nonane] are 7.54 and 7.61.
The corresponding values for `COc1ccc(CC(=O)N2CCC3(CC2)CN([C@@H]2CCc4cc(-c5ccncn5)ccc42)C3)nc1` [Example 3AE] are 7.14 and 7.16.
`COc1ccc(CC(=O)N2CCC3(CC2)CN(C2CCc4cc(-c5ccnc(C)c5)ccc42)C3)nc1` (racemic) [Example 2B] had a pIC50 at human GHSR1a [2] of 8.17.
Consider `O=C(Cc1cn(-c2ccccc2)cn1)N1CCC2(CC1)CN([C@@H]1CCc3cc(-c4ncccn4)ccc31)C2` [Example 3AV], for which, on human GHSR1a [2], the pIC50 is 6.64 and the pKi is 6.70.
At human GHSR1a [2], `Cc1ccc(CC(=O)N2CCC3(CC2)CN([C@@H]2CCc4cc(-c5nccc(C)n5)ccc42)C3)nc1` [Example 3T] gave a negative logarithm of the IC50 (pIC50) of 7.08 and a pKi of 7.14.
On human GHSR1a [2], `COc1ccc(CC(=O)N2CCC3(CC2)CN([C@@H]2CCc4cc(-c5ccnc(C)n5)ccc42)C3)nc1` [Example 3K] gave a pIC50 of 7.00 and a negative-log Ki (pKi) of 7.06.
On human GHSR1a [2], `COc1ccc(CC(=O)N2CCC3(CC2)CN(C2CCc4cc(-c5cc(C)ccn5)ccc42)C3)nc1` (racemic) [Example 2G] had a negative-log IC50 (pIC50) of 8.21.
On to `COc1ccc(CC(=O)N2CCC3(CC2)CN([C@@H]2CCc4cc(-c5ccc(C(N)=O)cn5)ccc42)C3)nc1` [Example 11A, 6-((R)-1-{7-[2-(5-Methoxy-pyridin-2-yl)-acetyl]-2,7-diaza-spiro[3.5]non-2-yl}indan-5-yl)-nicotinamide], for which, on human GHSR1a [2], the pIC50 was 7.48 and the pKi is 7.54.
